Laboratory results published in patent EP0044212B1, “Herbicidal o-alkylsulfonyloxy- and o-alkylsulfonylamino-benzenesulfonamides” (E.I. DU PONT DE NEMOURS AND COMPANY, priority 1980, dated 1982).

Columns and labels:
[1] = system: Wild Oats; test: Test B pre-emergence on Fallsington silt loam; assay type: in vivo, Avena fatua; set-up: scale not given here; conditions: 28 days
Source text: (§1) Two plastic bulb pans were filled with fertilized and limed Fallsington silt loam soil. One pan was planted with corn, sorghum, Kentucky bluegrass and several grassy weeds. The other pan was planted with cotton, soybeans, purple nutsedge (Cyperus rotundus), and several broadleaf weeds. The following grassy and broadleaf weeds were planted: crabgrass (Digitaria sanguinalis), barnyardgrass (Echinochloa crusgalli), wild oats (Avena fatua), johnsongrass (Sorghum halepense), dallisgrass (Paspalum dilatatum), giant foxtail (Setaria faberii), cheatgrass (Bromus secalinus), mustard (Brassica arvensis), cocklebur (Xanthium pensylvanicum), pigweed (Amaranthus retroflexus), morningglory (Ipomoea hederacea), cassia (Cassia tora), teaweed (Sida spinosa), velvetleaf (Abutilon theophrasti), and jimsonweed (Datura stramonium). A 12.5 cm diameter plastic pot was also filed with prepared soil and planted with rice and wheat. Another 12.5 cm pot was planted with sugarbeets. The above four containers were treated pre- emergence with several test compounds within the scope of the invention.
(§2) Twenty-eight days after treatment, the plants were evaluated and visually rated for response to the chemical treatments utilizing the rating system described previously for Test A. The data are summarized in Table B.

[2] = system: Johnsongrass; test: Test B pre-emergence on Fallsington silt loam; assay type: in vivo, Sorghum halepense; set-up: scale not given here; conditions: 0.12 kg/ha, 28 days
Source text: as §1, §2

[3] = system: Dallisgrass; test: Test B pre-emergence on Fallsington silt loam; assay type: in vivo, Paspalum dilatatum; set-up: scale not given here; conditions: 0.03 kg/ha, 28 days
Source text: as §1, §2

[4] = system: Ky. bluegrass; test: Test B pre-emergence on Fallsington silt loam; assay type: in vivo, Kentucky bluegrass; set-up: scale not given here; conditions: 0.12 kg/ha, 28 days
Source text: as §1, §2

[5] = system: Sugarbeets; test: Test B pre-emergence on Fallsington silt loam; assay type: in vivo; set-up: scale not given here; conditions: 28 days
Source text: as §1, §2

[6] = system: Wheat; test: Test B pre-emergence on Fallsington silt loam; assay type: in vivo; set-up: scale not given here; conditions: 28 days
Source text: as §1, §2

[7] = system: Cocklebur; test: Test B pre-emergence on Fallsington silt loam; assay type: in vivo, Xanthium pensylvanicum; conditions: 0.03 kg/ha, 28 days
Source text: as §1, §2

[8] = system: Morningglory; test: Test B pre-emergence on Fallsington silt loam; assay type: in vivo, Ipomoea hederacea; conditions: 0.03 kg/ha, 28 days
Source text: as §1, §2

[9] = system: Cassia; test: Test B pre-emergence on Fallsington silt loam; assay type: in vivo, Cassia tora; conditions: 0.12 kg/ha, 28 days
Source text: as §1, §2

[10] = system: Corn; test: Test F over-the-top soil/foliage treatment; assay type: in vivo; conditions: soil/foliage spray; 0.06 kg/ha; ~14 days
Description: (§3) The test chemicals, dissolved in a non-phytotoxic solvent, were applied in an overall spray to the foliage and surrounding […] of selected plant species. […] Approximately fourteen days after treatment, all species were visually compared to untreated controls and rated for response to treatment.
(§4) All plant species were seeded in Woodstown sandy loam soil and grown in a greenhouse. The following species were grown in soil contained in plastic pots (25 cm diameter by 13 cm deep): soybeans, cotton, alfalfa, corn, rice, wheet, sorghum, velvetleaf (Abutilon theophrasti), sesbania (Sesbania exaltata), Cassia (Cassia tora), morningglory (Ipomoea hederacea), jimsonweed (Datura stramonium), cocklebur (Xanthium pensylvanicum), crabgrass (Digitaria spp.), nutsedge (Cyperus rotundus), barnyardgrass (Echinochloa crusgalli), giant foxtail (Setaria faberii) and wild oats (Avena fatua). The following species were grown in soil in a paper cup (12 cm diameter by 13 cm deep): sunflower, sugarbeets, and mustard. All plants were sprayed approximately 14 days after planting.

[11] = system: Mustard; test: Test F over-the-top soil/foliage treatment; assay type: in vivo; conditions: soil/foliage spray, ~14 days
Description: as §3, §4

[12] = system: Sugarbeets; test: Test F over-the-top soil/foliage treatment; assay type: in vivo; conditions: soil/foliage spray; 0.007 kg/ha; ~14 days
Description: as §3, §4

[13] = system: Sunflower; test: Test F over-the-top soil/foliage treatment; assay type: in vivo; conditions: soil/foliage spray, ~14 days
Description: as §3, §4

[14] = system: Sesbania; test: Test F over-the-top soil/foliage treatment; assay type: in vivo, Sesbania exaltata; set-up: scale not given here; conditions: soil/foliage spray, ~14 days
Description: as §3, §4

[15] = system: Alfalfa; test: Test F over-the-top soil/foliage treatment; assay type: in vivo; set-up: scale not given here; conditions: soil/foliage spray, ~14 days
Description: as §3, §4

[16] = system: Sorghum; test: Test F over-the-top soil/foliage treatment; assay type: in vivo; set-up: scale not given here; conditions: soil/foliage spray, ~14 days
Description: as §3, §4

[17] = system: Jimsonweed; test: Test F over-the-top soil/foliage treatment; assay type: in vivo, Datura stramonium; conditions: soil/foliage spray, ~14 days
Description: as §3, §4

[18] = system: Crabgrass; test: Test F over-the-top soil/foliage treatment; assay type: in vivo, Digitaria spp.; set-up: scale not given here; conditions: soil/foliage spray, ~14 days
Description: as §3, §4

[19] = system: Nutsedge; test: Test F over-the-top soil/foliage treatment; assay type: in vivo, Cyperus rotundus; set-up: scale not given here; conditions: soil/foliage spray, ~14 days
Description: as §3, §4

[20] = system: Barnyardgrass; test: Test F over-the-top soil/foliage treatment; assay type: in vivo, Echinochloa crusgalli; set-up: scale not given here; conditions: soil/foliage spray, ~14 days
Description: as §3, §4

[21] = system: Wheat; test: Test F over-the-top soil/foliage treatment; assay type: in vivo, wheet; set-up: scale not given here; conditions: soil/foliage spray, ~14 days
Description: as §3, §4

[22] = system: Giant Foxtail; test: Test F over-the-top soil/foliage treatment; assay type: in vivo, Setaria faberii; set-up: scale not given here; conditions: soil/foliage spray, ~14 days
Description: as §3, §4

[23] = system: Wild Oats; test: Test F over-the-top soil/foliage treatment; assay type: in vivo, Avena fatua; set-up: scale not given here; conditions: soil/foliage spray, ~14 days
Description: as §3, §4

Compound: COc1cc(OC)nc(NC(=O)NS(=O)(=O)c2ccccc2OS(C)(=O)=O)n1 [Compound 1, N-[(4,6-Dimethoxypyrimidin-2-yl)aminocarbonyl]-2-hydroxybenzenesulfonamide, methanesulfonate]
- Wild Oats response rating ([1]; 0.03 kg/ha): 6G
- Wild Oats response rating ([1]; 0.12 kg/ha): 10C
- Johnsongrass response rating [2]: 10C
- Dallisgrass response rating [3]: 7G
- Ky. bluegrass response rating [4]: 10C
- Sugarbeets response rating ([5]; 0.03 kg/ha): 10C
- Sugarbeets response rating ([5]; 0.12 kg/ha): 10C
- Wheat response rating ([6]; 0.03 kg/ha): 0
- Wheat response rating ([6]; 0.12 kg/ha): 3G
- Cocklebur response rating [7]: 6G
- Morningglory response rating [8]: 5G
- Cassia response rating [9]: 10C
- Corn response rating [10]: 10C
- Mustard response rating ([11]; 0.003 kg/ha): 10C
- Mustard response rating ([11]; 0.007 kg/ha): 10C
- Sugarbeets response rating [12]: 10C
- Sunflower response rating ([13]; 0.003 kg/ha): 10C
- Sunflower response rating ([13]; 0.007 kg/ha): 10C
- Sesbania response rating ([14]; 0.003 kg/ha): 10C
- Sesbania response rating ([14]; 0.007 kg/ha): 10C
- Sesbania response rating ([14]; 0.015 kg/ha): 9C
- Sesbania response rating ([14]; 0.06 kg/ha): 9C
- Alfalfa response rating ([15]; 0.015 kg/ha): 5C
- Alfalfa response rating ([15]; 0.06 kg/ha): 9C
- Sorghum response rating ([16]; 0.015 kg/ha): 9C
- Sorghum response rating ([16]; 0.06 kg/ha): 10C
- Jimsonweed response rating ([17]; 0.003 kg/ha): 0
- Jimsonweed response rating ([17]; 0.007 kg/ha): 0
- Jimsonweed response rating ([17]; 0.06 kg/ha): 9C
- Crabgrass response rating ([18]; 0.003 kg/ha): 0
- Crabgrass response rating ([18]; 0.007 kg/ha): 5G
- Crabgrass response rating ([18]; 0.015 kg/ha): 2C
- Nutsedge response rating ([19]; 0.003 kg/ha): 3G
- Nutsedge response rating ([19]; 0.007 kg/ha): 5G
- Nutsedge response rating ([19]; 0.015 kg/ha): 10C
- Nutsedge response rating ([19]; 0.06 kg/ha): 10C
- Barnyardgrass response rating ([20]; 0.015 kg/ha): 10C
- Barnyardgrass response rating ([20]; 0.06 kg/ha): 10C
- Wheat response rating ([21]; 0.003 kg/ha): 1G
- Wheat response rating ([21]; 0.007 kg/ha): 0
- Wheat response rating ([21]; 0.015 kg/ha): 0
- Wheat response rating ([21]; 0.06 kg/ha): 0
- Giant Foxtail response rating ([22]; 0.003 kg/ha): 5G
- Giant Foxtail response rating ([22]; 0.007 kg/ha): 5G
- Wild Oats response rating ([23]; 0.003 kg/ha): 3G
- Wild Oats response rating ([23]; 0.007 kg/ha): 3G
- Wild Oats response rating ([23]; 0.015 kg/ha): 3G
- Wild Oats response rating ([23]; 0.06 kg/ha): 6G
